Test results reported in ChEMBL document CHEMBL4000141, “Synthesis and carbonic anhydrase isoenzymes I, II, IX, and XII inhibitory effects of dimethoxybromophenol derivatives incorporating cyclopropane moieties” (J Med Chem, 2015).

molecular target: Carbonic anhydrase 12 (Homo sapiens, UniProt O43570); experiment: Inhibition of human CA12 by stopped-flow CO2 hydration method
Sequence (O43570 whole entry): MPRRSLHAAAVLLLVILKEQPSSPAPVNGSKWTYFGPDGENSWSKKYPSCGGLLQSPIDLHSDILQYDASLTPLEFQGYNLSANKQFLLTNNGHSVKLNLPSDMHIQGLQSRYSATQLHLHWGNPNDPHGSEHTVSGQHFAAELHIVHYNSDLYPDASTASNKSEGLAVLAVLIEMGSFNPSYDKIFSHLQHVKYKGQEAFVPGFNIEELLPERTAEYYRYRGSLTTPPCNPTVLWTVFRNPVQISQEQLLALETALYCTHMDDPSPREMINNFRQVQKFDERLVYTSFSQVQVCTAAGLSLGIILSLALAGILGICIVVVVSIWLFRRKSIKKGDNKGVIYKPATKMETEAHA

| Structure (SMILES) | Ki |
| --- | --- |
| COc1cc(C[C@H]2C[C@H]2C(=O)O)c(Br)c(Br)c1OC | > 50 µM |
| COc1cc(Br)c(C[C@H]2C[C@H]2C(=O)O)c(Br)c1OC | > 50 µM |
| COc1cc(C[C@@H]2C[C@H]2C(=O)O)c(Br)c(Br)c1OC | > 50 µM |
| COc1cc(Br)c(C[C@@H]2C[C@H]2C(=O)O)c(Br)c1OC | > 50 µM |

molecular target: Carbonic anhydrase 9 (Homo sapiens, UniProt Q16790)
Description: Inhibition of human CA9 by stopped-flow CO2 hydration method

| Structure (SMILES) | Ki |
| --- | --- |
| CCOC(=O)[C@@H]1C[C@H]1Cc1cc(OC)c(OC)c(Br)c1Br | 9 µM |
| CCOC(=O)[C@@H]1C[C@@H]1Cc1c(Br)c(Br)c(OC)c(OC)c1Br | > 50 µM |
| COc1cc(C[C@H]2C[C@H]2C(=O)O)c(Br)c(Br)c1OC | > 50 µM |
| COc1cc(Br)c(C[C@H]2C[C@H]2C(=O)O)c(Br)c1OC | > 50 µM |
| COc1ccc(C[C@@H]2C[C@H]2CO)cc1OC | 8.8 µM |
| CCOC(=O)[C@@H]1C[C@@H]1Cc1ccc(OC)c(OC)c1 | 6.6 µM |
| COc1cc(Br)c(C[C@H]2C[C@H]2C(=O)O)cc1OC | > 50 µM |
| COc1cc(C[C@@H]2C[C@H]2C(=O)O)c(Br)c(Br)c1OC | > 50 µM |
| COc1cc(Br)c(C[C@@H]2C[C@H]2C(=O)O)c(Br)c1OC | > 50 µM |
| CCOC(=O)[C@@H]1C[C@@H]1Cc1cc(OC)c(OC)cc1Br | 1 µM |
| COc1c(Br)c(Br)c(C[C@H]2C[C@H]2C(=O)O)c(Br)c1OC | 10.5 µM |
| CCOC(=O)[C@@H]1C[C@@H]1Cc1c(Br)cc(OC)c(OC)c1Br | 8.9 µM |
| COc1ccc(C[C@@H]2C[C@H]2C(=O)O)cc1OC | 1.1 µM |
| CCOC(=O)[C@@H]1C[C@H]1Cc1cc(OC)c(OC)cc1Br | 7.3 µM |
| CCOC(=O)[C@@H]1C[C@H]1Cc1ccc(OC)c(OC)c1 | 9.1 µM |
| CCOC(=O)[C@@H]1C[C@H]1Cc1c(Br)cc(OC)c(OC)c1Br | 9.7 µM |
| COc1cc(Br)c(C[C@@H]2C[C@H]2C(=O)O)cc1OC | 9.8 µM |
| CCOC(=O)[C@@H]1C[C@@H]1Cc1cc(OC)c(OC)c(Br)c1Br | > 50 µM |
| COc1c(Br)c(Br)c(C[C@@H]2C[C@H]2C(=O)O)c(Br)c1OC | > 50 µM |
| CCOC(=O)[C@@H]1C[C@H]1Cc1c(Br)c(Br)c(OC)c(OC)c1Br | 7.8 µM |
| COc1ccc(C[C@H]2C[C@H]2CO)cc1OC | 4.9 µM |
| COc1ccc(C[C@@H]2C[C@@H]2C(=O)O)cc1OC | 8.8 µM |
